Experimental data as given in patent US8993585B2, “Cyclic amine substituted pyrimidinediamines as PKC inhibitors” (Rigel Pharmaceuticals, Inc., priority 2007, dated 2015).
pIC50: −log10 of the molar value.

Tested on: Human primary T cells
Assay: IL-2 ELISA, Human Primary T Cell, Anti-CD3+CD28+ (Example 3)
Type: cell-based
Conditions: anti-CD3+CD28 stimulation
Summary of the method: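 IL-2 was read by ELISA after stimulation on wells pre-coated with 1 ug/ml αCD3 and 5 μg/ml αCD28. Before this, 100,000 human primary T cells per well spent 1 h at 37 °C with test compound in Yssel's medium. The counter-screen replaced antibody stimulation with PMA (0.5 ng/ml final) and ionomycin (0.1 uM final).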

| Compound | pIC50 (24 hours) | pIC50 (Homo sapiens, T-cell, 24 h) | other results |
| --- | --- | --- | --- |
| CN1C(C)(C)CC(N(Cc2ccccc2)c2nc(Nc3ccc(N4CCOCC4)c(C(F)(F)F)c3)ncc2F)CC1(C)C [Compound I-312] |  | 5.77 |  |
| CN1CCN(c2ccc(Nc3ncc(F)c(N(C)C4CC(C)(C)N(C)C(C)(C)C4)n3)cc2Cl)CC1 [Compound I-60] | 6.28 |  |  |
| CN1C(C)(C)CC(N(Cc2ccccc2)c2nc(Nc3ccc4c(c3)OCCO4)ncc2F)CC1(C)C [II-86] |  |  | pIC50 (T-cell, 24 hours): 5.90 |
| CCOC(=O)c1cnc(Nc2ccc(N3CCN(C)CC3)c(Cl)c2)nc1NC1CC(C)(C)N(C)C(C)(C)C1 [Compound I-89] | 5.24 |  |  |
| CN(C)c1ccc(-c2ccc(Nc3ncc(F)c(NC4CC(C)(C)NC(C)(C)C4)n3)cc2C#N)cn1 [Compound I-428] |  | 6.25 |  |
| CC(=O)N1CCN(c2cc(Nc3ncc(F)c(NC4CC(C)(C)N(C)C(C)(C)C4)n3)ccc2C(F)(F)F)CC1 [Compound I-212] | 6.35 |  |  |
| CC1(C)CC(Nc2nc(Nc3cc(OCC(F)(F)F)cc(OCC(F)(F)F)c3)ncc2C(N)=O)CC(C)(C)N1 [Compound I-408] | 5.98 |  |  |
| CN1C(C)(C)CC(Nc2nc(Nc3ccc(NC(=O)c4ccco4)c(C(F)(F)F)c3)ncc2F)CC1(C)C [Compound I-355] | 6.05 |  |  |
| CN1C(C)(C)CC(Nc2nc(Nc3nc(-c4ccc5c(c4)OCCO5)cs3)ncc2F)CC1(C)C [II-132] |  | 6.08 |  |
| CN1C(C)(C)CCC(Nc2nc(Nc3ccc(N4CCN(S(C)(=O)=O)CC4)c(C(F)(F)F)c3)ncc2F)CC1(C)C (stereo not drawn) [Compound I-264, 5-Fluoro-N2-[4-methylsulfonylpiperazin-lyl-3-trifluoromethyl]phenyl-N4-(1,2,2,7,7-pentamethylazepan-4-yl)-2,4-pyrimidinediamine] | 5.37 |  |  |
| CC1(C)CC(Nc2nc(Nc3ccc(-c4ccc(N5CCOCC5)nc4)c(C#N)c3)ncc2F)CC(C)(C)N1 [Compound I-429] |  | 6.11 |  |
| CN1C(C)(C)CC(Nc2nc(Nc3ccc(N4CCOCC4)c(C(F)(F)F)c3)ncc2Cl)CC1(C)C [Compound I-241] | 6.44 |  |  |

Continued, in another order:

| pIC50 (24 hours) | pIC50 (Homo sapiens, T-cell, 24 h) | Compound | other results |
| --- | --- | --- | --- |
| 6.21 |  | CN1C(C)(C)CC(Nc2nc(Nc3cc(F)c(F)c(F)c3)ncc2F)CC1(C)C [Compound I-347] |  |
| 7.00 |  | CCCc1nnnn1-c1cc(Nc2ncc(F)c(NC3CC(C)(C)N(C)C(C)(C)C3)n2)ccc1OC [Compound I-395] |  |
| 5.96 |  | COc1ccc(Nc2ncc(F)c(NC3CC(C)(C)N(C)C(C)(C)C3)n2)cc1OC [Compound I-130] |  |
|  | 6.77 | CC(C)N1C(=O)COc2cc(Nc3ncc(F)c(NC4CC(C)(C)N(C)C(C)(C)C4)n3)ccc21 [II-61] |  |
|  | 6.22 | COc1cc(O)cc(Nc2ncc(F)c(NC3CC(C)(C)N(C)C(C)(C)C3)n2)c1 [Compound I-436] |  |
|  | 6.17 | CN1C(C)(C)CC(Nc2nc(Nc3cccc(OC(F)(F)F)c3)ncc2Cl)CC1(C)C [Compound I-240] |  |
| 5.61 |  | CN1C(C)(C)CC(Nc2nc(Nc3ccc(OCC(N)=O)cc3)ncc2F)CC1(C)C [Compound I-134] |  |
| 5.57 |  | CN1C(C)(C)CC(Nc2nc(Nc3ccc(F)c(-n4cnnn4)c3)ncc2C(N)=O)CC1(C)C [Compound I-468] |  |
| 6.40 |  | CN1C(C)(C)CC(Nc2nc(Nc3ccc(OC(F)(F)F)c(-c4ccncc4)c3)ncc2F)CC1(C)C [Compound I-207] |  |
| 5.91 |  | Cc1ccc(Nc2ncc(F)c(NC3CC(C)(C)N(C)C(C)(C)C3)n2)cc1-c1cc2ccccc2s1 [Compound I-189] |  |
|  | 5.34 | COC(=O)CCN1C(C)(C)CC(Nc2nc(Nc3cc(Cl)cc(Cl)c3)ncc2F)CC1(C)C [Compound I-294] |  |
| 5.70 |  | CN1CCN(C(=O)c2ccc(Nc3ncc(F)c(NC4CC(C)(C)N(C)C(C)(C)C4)n3)cc2Cl)CC1 [Compound I-44] |  |
|  | 5.09 | CN1C(C)(C)CC(Nc2nc(Nc3cccc(OC(F)(F)F)c3)ncc2C(F)(F)F)CC1(C)C [Compound I-242] |  |
|  | 4.96 | COc1cnc(Nc2ccc3c(c2)OCCO3)nc1NC1CC(C)(C)N(C)C(C)(C)C1 [II-129] |  |
| 5.96 |  | COC(=O)C=CN1C(C)(C)CC(Nc2nc(Nc3cc(OC)cc(OC)c3)ncc2F)CC1(C)C [Compound I-298] |  |
